Measured values as given in EP0863145A2, “Sunscreen compositions” (F. HOFFMANN-LA ROCHE AG, priority 1997, dated 1998).

Experiment: Solubility in cosmetic solvents (Cétiol LC, Crodamol DA)
Type: physicochemical
Conditions: solvent Cétinol LC; chromatographed product
From the text: Bezüglich der Lipophilität sind die erfindungsgemässen Verbindungen I den eingangs genannten substituierten Triazinen überlegen, indem alle Verbindungen I das im vorliegenden Fall nötige Kriterium, nämlich eine hohe Löslichkeit in kosmetischen Lösungsmitteln wie z.B. Deltyl extra (Isopropylmyristat), Arlanol E (PPG 15-Stearylether), Cétiol LC (Cocoylcapylat/-caprat) oder Crodamol DA (Diisopropyladipat) erfüllen, wie die nachfolgend beispielhaft aufgeführten Verbindungen der Formel I und deren Löslichkeiten in Cetiol LC und/oder in Crodamol DA zeigen (Tabelle II).

Row | SMILES | Löslichkeit in Cétinol LC [%]
1 | C[Si](C)(C)O[Si](C)(C)CCCCOc1ccc(-c2nc(-c3ccc(OCCCC[Si](C)(C)O[Si](C)(C)C)cc3O)nc(-c3ccc(OCCCC[Si](C)(C)O[Si](C)(C)C)cc3O)n2)c(O)c1 [Beispiel 10, 5,5',5''-Tris-[4-(1,1,1,3,3-pentamethyl-disiloxan-oxy)-butyl-1-oxy]-2,2',2''-(1.3.5)-triazin-2,4,6-triyl-tris-phenol] | 8
2 | C[Si](C)(C)O[Si](C)(C)CCCCCOc1ccc(-c2nc(-c3ccc(OCCCCC[Si](C)(C)O[Si](C)(C)C)cc3O)nc(-c3ccc(OCCCCC[Si](C)(C)O[Si](C)(C)C)cc3O)n2)c(O)c1 [Beispiel 9-1] | > 35
